Patent US11008334B2, “Compositions and methods for treating cancer” (The Regents of the University of California, priority 2012, dated 2021)
Like-named read-outs stand apart in the source and are kept apart here.

Molecular target: T1, K-RasG12C (1-169) (Homo sapiens, UniProt P01116, G12C)
T1 construct: Un-tagged recombinant K-Ras G12C (1-169) at 4 μM in Buffer A; hexahistidine (cleaved yes); made in house; host or cells: Escherichia coli BL21 (DE)
Test: Mass spectrometric screen for extent of covalent labeling
Type: binding
Conditions: for percent covalent labeling at 10 µM: 10 micromolar; for Labeling % (10 micM) 24h: 10 micM compound, (plate) or (single) measurement
Procedure: Un-tagged recombinant K-Ras G12C (1-169) at 4 μM in Buffer A was reacted with inhibitors at 200 μM or 10 μM (2% DMSO final). At 2, 6, and 24 hrs, 10 μL aliquots were removed and the reactions were stopped by addition of 1 μL 2% formic acid. The extent of modification was determined by mass spectrometry.

[1] = 2 h, 2 hrs, read-out: Percent reduction in activity of compound at 10 micromolar relative to control (no compound), 2 hrs
[2] = 6 h, 6 hrs, read-out: Percent reduction in activity of compound at 10 micromolar relative to control (no compound), 6 hrs
[3] = 24 h, 24 hrs, read-out: Percent reduction in activity of compound at 10 micromolar relative to control (no compound), 24 hrs

Row | Structure (SMILES) | percent covalent labeling at 10 µM [1] | percent covalent labeling at 10 µM [2] | percent covalent labeling at 10 µM [3] | Labeling % (10 micM) 24h | Labeling % (10 micM) 24h (Table 5)
1 | CN(C)C/C=C/C(=O)NC1CCN(C(=O)COc2ccc(Cl)cc2Cl)CC1 [Ras-007] | ≤ 5% | ≤ 5% | ≤ 5% | – | –
2 | C=CS(=O)(=O)NC1CCN(C(=O)COc2c(Cl)cc(Cl)cc2Cl)CC1 [Ras-008] | ≤ 5% | ≤ 5% | ≤ 5% | – | –
3 | C=CS(=O)(=O)NC1CCN(C(=O)Cn2ncc3ccccc32)CC1 [Ras-009] | ≤ 5% | ≤ 5% | ≤ 5% | – | –
4 | C=CS(=O)(=O)NC1CCN(C(=O)CCn2ncc3ccccc32)CC1 [Ras-010] | ≤ 5% | ≤ 5% | ≤ 5% | – | –
5 | C=CS(=O)(=O)NC1CCN(C(=O)CCn2cnc3ccccc32)CC1 [Ras-012] | ≤ 5% | ≤ 5% | ≤ 5% | – | –
6 | C=CS(=O)(=O)NC1CCN(C(=O)COc2cc(C#N)c(Cl)cc2Cl)CC1 [Ras-013] | ≤ 5% | ≤ 5% | 5 to 20% | – | –
7 | C=CS(=O)(=O)NC1CCN(C(=O)Cn2cnc3ccccc32)CC1 [Ras-014] | ≤ 5% | ≤ 5% | ≤ 5% | – | –
8 | C=CS(=O)(=O)NC1CCN(C(=O)COc2ccc(Cl)cc2NC(C)=O)CC1 [Ras-016] | ≤ 5% | ≤ 5% | ≤ 5% | – | –
9 | C=CS(=O)(=O)NC1CCN(C(=O)COc2ccc(Cl)cc2F)CC1 [Ras-017] | ≤ 5% | ≤ 5% | ≤ 5% | – | –
10 | C=CS(=O)(=O)NC1CCN(C(=O)COc2ccc(Cl)cc2C(=O)OC)CC1 [Ras-020] | ≤ 5% | ≤ 5% | ≤ 5% | – | –
11 | C=CS(=O)(=O)NC1CCN(C(=O)COc2cc(NC(C)=O)c(Cl)cc2Cl)CC1 [Ras-022] | ≤ 5% | ≤ 5% | ≤ 5% | – | –
12 | C=CS(=O)(=O)NC1CCN(C(=O)COc2ccc(Cl)cc2C(N)=O)CC1 [Ras-023] | ≤ 5% | ≤ 5% | ≤ 5% | – | –
13 | C=CS(=O)(=O)NC1CCN(C(=O)COc2ccc(Cl)cc2N2CCCC2)CC1 [Ras-029] | ≤ 5% | ≤ 5% | ≤ 5% | – | –
14 | C=CS(=O)(=O)NC1CCN(C(=O)COc2ccc(Cl)cc2CNC(C)=O)CC1 [Ras-031] | ≤ 5% | ≤ 5% | ≤ 5% | – | –
15 | C=CS(=O)(=O)NC1CCN(C(=O)COc2ccc(Cl)cc2CN)CC1 [Ras-032] | ≤ 5% | ≤ 5% | ≤ 5% | – | –
16 | C=CS(=O)(=O)NC1CCN(C(=O)COc2ccc(Cl)cc2N(C)C)CC1 [Ras-034] | ≤ 5% | ≤ 5% | ≤ 5% | – | –
17 | C=CS(=O)(=O)NC1CCN(C(=O)COc2cc(C(N)=O)c(Cl)cc2Cl)CC1 [Ras-035] | ≤ 5% | ≤ 5% | ≤ 5% | – | –
18 | C=CS(=O)(=O)NC1CCN(C(=O)COc2cc(I)c(Cl)cc2Cl)CC1 [Ras-036] | ≤ 5% | 5 to 20% | 40 to 60% | – | –
19 | C=CS(=O)(=O)NC1CCN(C(=O)COc2cc(C(=O)O)c(Cl)cc2Cl)CC1 [Ras-038] | ≤ 5% | ≤ 5% | ≤ 5% | – | –
20 | C=CS(=O)(=O)NC1CCN(C(=O)COc2cc(O)c(Cl)cc2Cl)CC1 [Ras-039] | ≤ 5% | ≤ 5% | 5 to 20% | – | –
21 | C=CS(=O)(=O)NC1CCN(C(=O)COc2cc(Br)c(Cl)cc2Cl)CC1 [Ras-040] | ≤ 5% | ≤ 5% | 20 to 40% | – | –
22 | C=CS(=O)(=O)NC1CCN(C(=O)COc2ccc(Cl)cc2OC)CC1 [Ras-041] | ≤ 5% | ≤ 5% | 5 to 20% | – | –
23 | C=CS(=O)(=O)NC1CCN(C(=O)COc2ccc(Cl)cc2C=O)CC1 [Ras-042] | ≤ 5% | ≤ 5% | 5 to 20% | – | –
24 | C=CS(=O)(=O)NC1CCN(C(=O)COc2cc(C(C)=O)c(Cl)cc2Cl)CC1 [Ras-043] | ≤ 5% | ≤ 5% | ≤ 5% | – | –
25 | C=CS(=O)(=O)NC1CCN(C(=O)COc2cc(S(N)(=O)=O)c(Cl)cc2Cl)CC1 [Ras-047] | ≤ 5% | ≤ 5% | ≤ 5% | – | –
26 | C=CS(=O)(=O)NC1CCN(C(=O)COc2cc(OCCO)c(Cl)cc2Cl)CC1 [Ras-048] | ≤ 5% | ≤ 5% | 5 to 20% | – | –
27 | C=CS(=O)(=O)NC1CCN(C(=O)COc2cc(CO)c(Cl)cc2Cl)CC1 [Ras-050] | ≤ 5% | ≤ 5% | 5 to 20% | – | –
28 | C=CS(=O)(=O)NC1CCN(C(=O)COc2ccc(Cl)cc2CO)CC1 [Ras-051] | ≤ 5% | ≤ 5% | 5 to 20% | – | –

The next lines start with the values.

Row | percent covalent labeling at 10 µM [1] | percent covalent labeling at 10 µM [2] | percent covalent labeling at 10 µM [3] | Labeling % (10 micM) 24h | Labeling % (10 micM) 24h (Table 5) | Structure (SMILES)
29 | ≤ 5% | ≤ 5% | 20 to 40% | – | – | C=CS(=O)(=O)NC1CCN(C(=O)COc2cc(C(F)(F)F)c(Cl)cc2Cl)CC1 [Ras-011]
30 | ≤ 5% | ≤ 5% | 20 to 40% | – | – | C=CS(=O)(=O)NC1CCN(C(=O)COc2ccc(Cl)cc2Br)CC1 [Ras-015]
31 | ≤ 5% | ≤ 5% | 20 to 40% | – | – | C=CS(=O)(=O)NC1CCN(C(=O)COc2ccc(Cl)cc2C)CC1 [Ras-018]
32 | ≤ 5% | ≤ 5% | 5 to 20% | – | – | C=CS(=O)(=O)NC1CCN(C(=O)COc2cc(N)c(Cl)cc2Cl)CC1 [Ras-019]
33 | ≤ 5% | ≤ 5% | ≤ 5% | – | – | C=CS(=O)(=O)NC1CCN(C(=O)COc2ccc(Cl)cc2C#N)CC1 [Ras-021]
34 | ≤ 5% | ≤ 5% | ≤ 5% | – | – | C=CS(=O)(=O)NC1CCN(C(=O)COc2cc(NC)c(Cl)cc2Cl)CC1 [Ras-024]
35 | ≤ 5% | ≤ 5% | ≤ 5% | – | – | C=CS(=O)(=O)NC1CCN(C(=O)COc2ccc(Cl)cc2C(=O)N(C)C)CC1 [Ras-025]
36 | ≤ 5% | ≤ 5% | 5 to 20% | – | – | C=CS(=O)(=O)NC1CCN(C(=O)COc2cc(N(C)C)c(Cl)cc2Cl)CC1 [Ras-026]
37 | ≤ 5% | ≤ 5% | ≤ 5% | – | – | C=CS(=O)(=O)NC1CCN(C(=O)COc2cc(OCCN)c(Cl)cc2Cl)CC1 [Ras-027]
38 | ≤ 5% | ≤ 5% | 20 to 40% | +++ (plate) (20%< +++ <=40%) | +++ (plate) (20%< +++ <=40%) | C=CS(=O)(=O)NC1CCN(C(=O)CNc2ccc(Cl)cc2Cl)CC1 [Ras-028]
39 | ≤ 5% | ≤ 5% | 40 to 60% | – | – | C=CS(=O)(=O)NC1CCN(C(=O)COc2ccc(Cl)cc2I)CC1 [Ras-030]
40 | ≤ 5% | ≤ 5% | ≤ 5% | – | – | C=CS(=O)(=O)NC1CCN(C(=O)COc2ccc(Cl)cc2N)CC1 [Ras-033]
41 | ≤ 5% | ≤ 5% | 5 to 20% | – | – | C=CS(=O)(=O)NC1CCN(C(=O)COc2cc(C(=O)OC)c(Cl)cc2Cl)CC1 [Ras-037]
42 | ≤ 5% | ≤ 5% | 5 to 20% | – | – | C=CS(=O)(=O)NC1CCN(C(=O)COc2cc(C(C)O)c(Cl)cc2Cl)CC1 (centres unmarked) [Ras-044]
43 | ≤ 5% | ≤ 5% | ≤ 5% | – | – | C=CS(=O)(=O)NC1CCN(C(=O)COc2cc(-c3nn[nH]n3)c(Cl)cc2Cl)CC1 [Ras-045]
44 | ≤ 5% | ≤ 5% | ≤ 5% | – | – | C=CS(=O)(=O)NC1CCN(C(=O)COc2ccc(Cl)cc2C(=O)N2CCC(NS(=O)(=O)C=C)CC2)CC1 [Ras-046]
45 | ≤ 5% | ≤ 5% | ≤ 5% | – | – | C=CS(=O)(=O)NC1CCN(C(=O)COc2cc(C(=O)NCCO)c(Cl)cc2Cl)CC1 [Ras-049]
46 | ≤ 5% | ≤ 5% | 5 to 20% | – | – | C=CS(=O)(=O)NC1CCN(C(=O)CN(C)c2cc(Cl)c(Cl)cc2I)CC1 [Ras-052]
47 | ≤ 5% | 5 to 20% | 40 to 60% | – | – | C=CS(=O)(=O)NC1CCN(C(=O)COc2cc(Cl)c(Cl)cc2I)CC1 [Ras-053]
